Assay results: paper PMC8752738, “A propolis-derived small molecule ameliorates metabolic syndrome in obese mice by targeting the CREB/CRTC2 transcriptional complex” (Nature Communications, 2022)
Several values for one entry are separate records, joined by “and”; a condition that tells them apart may be missing. Identical values can stand only once.

Assays:
[1] = biological target: T1, CRTC2 / SEC31A interaction (Mus musculus, UniProt Q3U182+Q3UPL0); assay: Co-immunoprecipitation CRTC2 / SEC31A; type: biochemical; conditions: APC 10 μM in IP mixture
T1 construct: expressed in transfected cells; host or cells: HEK293
T1 sequence (Q3U182 whole entry): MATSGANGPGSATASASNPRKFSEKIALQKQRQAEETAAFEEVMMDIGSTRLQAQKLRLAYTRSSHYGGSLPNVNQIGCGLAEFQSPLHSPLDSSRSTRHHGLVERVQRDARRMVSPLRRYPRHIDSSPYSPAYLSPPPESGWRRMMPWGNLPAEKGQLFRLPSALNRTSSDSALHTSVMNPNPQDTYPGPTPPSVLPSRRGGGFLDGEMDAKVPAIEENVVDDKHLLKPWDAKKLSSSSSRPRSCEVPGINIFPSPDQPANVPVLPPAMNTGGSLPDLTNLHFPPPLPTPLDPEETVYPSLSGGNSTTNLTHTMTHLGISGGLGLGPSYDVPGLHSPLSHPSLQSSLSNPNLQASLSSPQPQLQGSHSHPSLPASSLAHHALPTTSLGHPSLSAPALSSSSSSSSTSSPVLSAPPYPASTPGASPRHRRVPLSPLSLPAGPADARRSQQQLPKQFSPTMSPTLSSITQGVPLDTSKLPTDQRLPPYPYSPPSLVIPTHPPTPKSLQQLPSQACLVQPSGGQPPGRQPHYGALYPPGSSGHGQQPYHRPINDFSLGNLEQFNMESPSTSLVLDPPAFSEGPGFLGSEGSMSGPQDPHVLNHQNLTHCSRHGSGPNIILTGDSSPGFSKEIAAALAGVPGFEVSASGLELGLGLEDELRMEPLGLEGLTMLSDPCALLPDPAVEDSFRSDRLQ
T1 sequence (Q3UPL0 whole entry): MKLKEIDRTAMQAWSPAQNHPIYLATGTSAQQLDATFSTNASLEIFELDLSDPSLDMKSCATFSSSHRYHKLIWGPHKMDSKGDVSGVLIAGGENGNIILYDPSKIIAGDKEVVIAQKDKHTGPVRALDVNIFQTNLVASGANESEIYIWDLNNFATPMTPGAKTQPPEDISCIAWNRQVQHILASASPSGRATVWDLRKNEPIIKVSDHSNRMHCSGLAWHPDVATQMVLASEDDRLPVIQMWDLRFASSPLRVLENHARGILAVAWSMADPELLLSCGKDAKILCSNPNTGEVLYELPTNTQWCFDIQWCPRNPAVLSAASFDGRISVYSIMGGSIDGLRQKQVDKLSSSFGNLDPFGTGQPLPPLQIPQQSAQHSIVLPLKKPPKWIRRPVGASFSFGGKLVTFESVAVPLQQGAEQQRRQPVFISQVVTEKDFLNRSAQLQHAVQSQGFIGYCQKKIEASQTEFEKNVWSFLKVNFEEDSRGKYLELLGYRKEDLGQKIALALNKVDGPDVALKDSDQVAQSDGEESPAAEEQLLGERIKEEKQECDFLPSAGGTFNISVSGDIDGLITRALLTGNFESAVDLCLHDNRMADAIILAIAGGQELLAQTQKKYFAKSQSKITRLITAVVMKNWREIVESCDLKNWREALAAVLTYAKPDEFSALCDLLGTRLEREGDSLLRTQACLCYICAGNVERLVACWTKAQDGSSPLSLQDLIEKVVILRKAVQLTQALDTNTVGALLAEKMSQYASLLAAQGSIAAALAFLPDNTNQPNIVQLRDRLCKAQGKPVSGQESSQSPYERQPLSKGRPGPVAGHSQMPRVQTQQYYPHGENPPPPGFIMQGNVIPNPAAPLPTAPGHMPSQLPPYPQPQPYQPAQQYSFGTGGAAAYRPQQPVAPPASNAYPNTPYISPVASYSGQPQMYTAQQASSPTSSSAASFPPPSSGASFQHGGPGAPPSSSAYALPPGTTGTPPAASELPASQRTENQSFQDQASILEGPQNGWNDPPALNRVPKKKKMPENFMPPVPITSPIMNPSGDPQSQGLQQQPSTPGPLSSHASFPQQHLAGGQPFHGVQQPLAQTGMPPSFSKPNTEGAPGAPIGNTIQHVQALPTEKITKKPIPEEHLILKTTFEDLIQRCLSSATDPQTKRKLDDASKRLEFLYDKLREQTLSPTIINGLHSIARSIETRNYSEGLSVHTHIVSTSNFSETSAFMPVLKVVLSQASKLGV
Method: 1 b) Immunoprecipitation of SEC31A from HEK293 cell lysates with overexpressed […] or
2 FLAG-Crtc2-WT. APC (10 μM) was added to the IP mixture overnight. One of two independent
3 experiments is shown here. […]
5 administered MET and APC as in (a). Data are represented as mean ± SEM (n=6 per group). *,
6 p < 0.05; **, p < 0.01; p values were determined by two-way ANOVA followed Bonferroni’s multiple
7 comparisons test. Source data for this figure are provided as a Source data file.

[2] = biological target: T2, GST-CREB / FLAG-CRTC2 interaction (Homo sapiens, UniProt P16220); assay: GST-pull-down of FLAG-CRTC2 from HEK293T lysates by GST-CREB beads; type: biochemical
T2 construct: made in house; host or cells: GST-CREB beads (pGEX5X-1); FLAG-CRTC2 expressed in HEK293T cells
T2 sequence (P16220 whole entry): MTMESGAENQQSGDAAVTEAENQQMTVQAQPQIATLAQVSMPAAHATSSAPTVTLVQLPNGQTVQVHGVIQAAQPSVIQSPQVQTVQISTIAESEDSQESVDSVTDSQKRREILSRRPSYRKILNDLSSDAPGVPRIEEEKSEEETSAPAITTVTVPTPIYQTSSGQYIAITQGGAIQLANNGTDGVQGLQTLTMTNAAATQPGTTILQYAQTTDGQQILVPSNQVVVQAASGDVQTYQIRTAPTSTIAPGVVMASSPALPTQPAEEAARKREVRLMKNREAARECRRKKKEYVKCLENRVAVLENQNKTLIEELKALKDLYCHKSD
Excerpt: To further confirm whether APC disrupts the protein association between CREB and CRTC2, we performed GST-pull-down assays in which GST-CREB beads were used to immunoprecipitated FLAG-tagged CRTC2 proteins that were expressed in HEK293T cells. As expected, APC attenuated the amounts of FLAG-CRTC2 proteins recovered by GST-CREB beads from HEK293T cell lysates (Fig. 2a). […] In contrast, APC had little effect on the association of GST-CREB with HA-P300 (Supplementary Fig. 2a), as well as the interaction between endogenous CRTC2 and CBP proteins (Fig. 2c). […]
Fig. 2 APC blocks interaction between CREB and CRTC2. a Analysis of GST-CREB immunoprecipitated with overexpressed FLAG-CRTC2 from the lysates of HEK293T cells. […] Data are represented as mean ± SEM); P values were determined by one-way ANOVA followed Dunnett’s multiple comparisons test. b Analysis of HA-CRTC2 immunoprecipitated with endogenous CREB from primary hepatocyte lysates. […] Data are represented as mean ± SEM; P values were determined by one-way ANOVA followed Dunnett’s multiple comparisons test. c Immunoblotting analysis of endogenous CREB, CRTC2, and CBP interaction by an anti-CRTC2 antibody from the lysate of primary hepatocytes. […] Data are represented as mean ± SEM; P values were determined by one-way ANOVA followed Dunnett’s multiple comparisons test (compared with APC = 0). […]

primary hepatocytes = assay: MTT assay, primary hepatocytes; type: cell-based, mouse; conditions: for Relative MTT absortance-48H, mean: n=5 (0 μM = 100); for Relative MTT absortance-48H: Supp. fig.3b, individual replicates
Method: Primary hepatocytes were exposed to APC at indicated concentrations for 48-h, then co-incubated with methyl thiazolyl tetrazolium (0.5 mg/mL in PBS, Sigma) solution for 5-h. After removing the solution, the purple crystals were dissolved using DMSO, and the absorbance was measured at 550 nm.

Daily food intake = type: in vivo, mouse; conditions: for foodintake in DIO, mean / foodintake in DIO: DIO mice; for foodintake in DIO, mean: group mean, n=6; for foodintake in DIO: individual values; for foodintake of db/db: single animals; for foodintake of db/db, group mean: mean of APC group, N=5

CC(C)=CCc1cc(C=CC(=O)O)cc(CC=C(C)C)c1O [APC, 3,5-diprenyl-4-hydroxycinnamic acid]
protein interaction between CRTC2 and SEC31A [1]: no impact
Pull down FLAG/GST band dentsity (FLAG in IP fraction) ([2]; Fig 2a source data, replicates, GST-CREB beads +, FLAG-CRTC2 +, APC + (10 μM)): 1.359 FOLDS and 1.3596 FOLDS and 1.382 FOLDS
FLAG-CRTC2 recovered by GST-CREB beads ([2]; HEK293T lysates, APC 10 μM): attenuated
Relative MTT absortance-48H, mean (primary hepatocytes; APC 1 μM): 102
Relative MTT absortance-48H, mean (primary hepatocytes; APC 5 μM): 103.2
Relative MTT absortance-48H, mean (primary hepatocytes; APC 25 μM): 101.9
Relative MTT absortance-48H, mean (primary hepatocytes; APC 100 μM): 105.7
hepatocyte viability (primary hepatocytes; APC up to 100 μM, 48-h): did not impair hepatocyte viability
Relative MTT absortance-48H (primary hepatocytes; APC 1 uM): 101.3514 and 105.1051 and 97.5976 and 102.8529 (2×)
Relative MTT absortance-48H (primary hepatocytes; APC 5 uM): 99.8499 and 98.3484 and 103.6036 and 105.1051 and 108.8589
Relative MTT absortance-48H (primary hepatocytes; APC 25 uM): 96.6066 and 104.3544 and 100.6006 and 99.6096 and 108.1081
Relative MTT absortance-48H (primary hepatocytes; APC 100 uM): 107.3574 and 101.1111 and 106.6066 and 109.6096 and 103.6036
foodintake in DIO, mean (Daily food intake; APC 10mg/kg): 3.935 g/mouse/day
foodintake in DIO (Daily food intake; APC 10mg/kg): 3.44 g/mouse/day and 4.55 g/mouse/day and 3.83 g/mouse/day and 3.87 g/mouse/day and 4.39 g/mouse/day and 3.53 g/mouse/day
foodintake in DIO, mean (Daily food intake; APC 20mg/kg): 3.517 g/mouse/day
foodintake in DIO (Daily food intake; APC 20mg/kg): 3.89 g/mouse/day and 3.58 g/mouse/day and 3.67 g/mouse/day and 3.06 g/mouse/day and 3.73 g/mouse/day and 3.17 g/mouse/day
foodintake of db/db (Daily food intake; db/db mice, day 1): 6.30 g/per mouse/24h and 5.90 g/per mouse/24h and 7.80 g/per mouse/24h and 7.20 g/per mouse/24h and 6.43 g/per mouse/24h
foodintake of db/db, group mean (Daily food intake; db/db mice, day 2): 6.34 g/per mouse/24h
foodintake of db/db (Daily food intake; db/db mice, day 2): 5.90 g/per mouse/24h and 6.90 g/per mouse/24h and 7.10 g/per mouse/24h and 7.50 g/per mouse/24h and 6.30 g/per mouse/24h
foodintake of db/db, group mean (Daily food intake; db/db mice, day 3): 6.44 g/per mouse/24h
foodintake of db/db (Daily food intake; db/db mice, day 3): 6.10 g/per mouse/24h and 7.30 g/per mouse/24h and 5.80 g/per mouse/24h and 7.20 g/per mouse/24h and 6.20 g/per mouse/24h
foodintake of db/db, group mean (Daily food intake; db/db mice, day 4): 6.5 g/per mouse/24h
foodintake of db/db (Daily food intake; db/db mice, day 4): 7.40 g/per mouse/24h and 6.30 g/per mouse/24h (2×) and 6.20 g/per mouse/24h and 5.90 g/per mouse/24h
foodintake of db/db, group mean (Daily food intake; db/db mice, day 5): 6.68 g/per mouse/24h
foodintake of db/db (Daily food intake; db/db mice, day 5): 5.70 g/per mouse/24h and 7.20 g/per mouse/24h and 6.80 g/per mouse/24h and 7.90 g/per mouse/24h and 5.80 g/per mouse/24h
foodintake of db/db, group mean (Daily food intake; db/db mice, day 6): 6.9 g/per mouse/24h
foodintake of db/db (Daily food intake; db/db mice, day 6): 8.00 g/per mouse/24h and 6.80 g/per mouse/24h and 6.10 g/per mouse/24h and 7.20 g/per mouse/24h and 6.40 g/per mouse/24h
foodintake of db/db, column mean over days 1-6 (Daily food intake; db/db mice, Mean of APC, two-way RM ANOVA): 6.737 g/per mouse/24h
daily food intake (Daily food intake; obese mice, 2 weeks of APC injection): no significant effects
